Results as given in patent US10975056B2 (GlaxoSmithKline Intellectual Property Development Limited, priority 2016, dated 2021).
Where a name gives a salt, the structure may show the parent alone. Read-outs that look alike come from different tables or passages of the source.

Legend:
[1] = system: erythroid progenitor cells (EPCs); assay: Fetal hemoglobin (HbF) ELISA in day 7 erythroid progenitor cells; format: cell-based, human; conditions: Homo sapiens, Erythroid progenitor cell, read-out: EPC ELISA (pEC50 category) (converted);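 for EPC ELISA (pEC50 category): for fetal hemoglobin induction normalized to vehicle-treated cells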
In short: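 HbF induction was read by anti-HbF sandwich ELISA (HRP/TMB, OD450) on lysates and normalized to vehicle-treated cells. Cells were day 7 erythroid progenitors derived from human bone marrow CD34+ cells, seeded at 1,000/well with 3 U/mL rhEPO. Compound was given for 5 days at 37 °C at final concentrations […].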

DNMT1 = DNMT1 (Homo sapiens, UniProt P26358); assay: DNMT1 biochemical activity, breaklight assay and/or SPA assay
[2] = binned activity in either the breaklight or the SPA assay, read-out: DNMT1 BioChemical (pIC50 category) (converted)
[3] = binned activity in either the breaklight or the SPA assay

Sequence of DNMT1 (P26358 whole entry, looked up): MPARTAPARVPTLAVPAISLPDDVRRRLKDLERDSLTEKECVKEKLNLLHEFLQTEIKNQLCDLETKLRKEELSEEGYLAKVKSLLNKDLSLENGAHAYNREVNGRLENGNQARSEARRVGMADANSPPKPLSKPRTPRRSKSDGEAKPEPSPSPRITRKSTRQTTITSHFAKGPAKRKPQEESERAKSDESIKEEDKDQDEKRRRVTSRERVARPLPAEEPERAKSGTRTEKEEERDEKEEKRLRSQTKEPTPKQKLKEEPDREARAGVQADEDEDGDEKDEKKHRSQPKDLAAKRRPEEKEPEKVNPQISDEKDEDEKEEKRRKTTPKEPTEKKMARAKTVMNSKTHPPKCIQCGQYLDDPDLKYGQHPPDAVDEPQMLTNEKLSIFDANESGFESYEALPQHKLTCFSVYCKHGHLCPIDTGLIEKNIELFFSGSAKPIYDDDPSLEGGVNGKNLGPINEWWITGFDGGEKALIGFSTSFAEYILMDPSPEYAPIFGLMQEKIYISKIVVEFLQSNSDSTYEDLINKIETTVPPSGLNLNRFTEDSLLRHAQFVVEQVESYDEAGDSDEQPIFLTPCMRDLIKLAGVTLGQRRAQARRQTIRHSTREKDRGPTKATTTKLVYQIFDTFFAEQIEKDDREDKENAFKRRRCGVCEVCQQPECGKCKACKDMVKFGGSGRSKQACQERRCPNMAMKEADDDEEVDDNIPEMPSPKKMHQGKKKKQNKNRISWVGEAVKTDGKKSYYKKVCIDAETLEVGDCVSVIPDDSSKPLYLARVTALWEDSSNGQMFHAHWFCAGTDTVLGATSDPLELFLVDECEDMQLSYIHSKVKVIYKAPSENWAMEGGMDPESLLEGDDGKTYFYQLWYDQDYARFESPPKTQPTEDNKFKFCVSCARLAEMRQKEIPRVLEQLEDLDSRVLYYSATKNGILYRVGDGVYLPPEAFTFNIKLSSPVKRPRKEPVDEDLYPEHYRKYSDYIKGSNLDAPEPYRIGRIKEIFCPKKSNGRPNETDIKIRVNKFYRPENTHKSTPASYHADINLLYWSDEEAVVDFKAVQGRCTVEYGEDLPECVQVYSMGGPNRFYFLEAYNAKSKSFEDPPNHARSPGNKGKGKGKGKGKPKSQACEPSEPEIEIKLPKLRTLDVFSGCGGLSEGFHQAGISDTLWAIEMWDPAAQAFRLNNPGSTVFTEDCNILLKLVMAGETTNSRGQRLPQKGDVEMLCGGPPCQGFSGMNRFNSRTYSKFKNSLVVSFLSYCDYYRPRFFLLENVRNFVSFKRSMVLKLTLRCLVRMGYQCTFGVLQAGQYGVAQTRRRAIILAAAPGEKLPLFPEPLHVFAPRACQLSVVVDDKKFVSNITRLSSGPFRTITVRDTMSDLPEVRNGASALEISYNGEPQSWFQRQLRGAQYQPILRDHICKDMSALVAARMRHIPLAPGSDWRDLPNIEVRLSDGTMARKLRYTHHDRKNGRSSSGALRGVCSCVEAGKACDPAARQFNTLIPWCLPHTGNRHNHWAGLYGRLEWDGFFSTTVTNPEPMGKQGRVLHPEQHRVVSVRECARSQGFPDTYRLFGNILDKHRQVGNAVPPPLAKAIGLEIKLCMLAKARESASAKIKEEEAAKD

| Compound | EC50 ([1]; HbF ELISA, day 7 EPCs, 5 days) [nM] | IC50 (DNMT1; [2]) [nM] | DNMT1 BioChemical (pIC50 category) (DNMT1; [3]) | further results |
| --- | --- | --- | --- | --- |
| CCc1c(C#N)c(SC(C(N)=O)c2ccccc2)nc(N2CCNCC(F)C2)c1C#N (stereo not drawn) [Example 381, 2-((3,5-Dicyano-4-ethyl-6-(16-fluoro-1,4-diazepan-1-yl)pyridin-2-yl)thio)-2-phenylacetamide] | 1000 to 31600 | 316 to 1000 |  |  |
| CCc1c(C#N)c(SC(C(N)=O)c2ccccc2)nc(N2CCC(N)C(F)(F)C2)c1C#N (stereo not drawn) [Example 382, 2-((6-(4-Amino-3,3-difluoropiperidin-1-yl)-3,5-dicyano-4-ethylpyridin-2-yl)thio)-2-phenylacetamide] | < 316 |  | D (Category D: ≥6.5) |  |
| CCc1c(C#N)c(SC(C(N)=O)c2ccccc2)nc(N2CCC(NC(=O)OC(C)(C)C)C(F)(F)C2)c1C#N (stereo not drawn) [Example 383, tert-Butyl (1-(6-((2-amino-2-oxo-1-phenylethyl)thio)-3,5-dicyano-4-ethylpyridin-2-yl)-3,3-difluoropiperidin-4-yl) carbamate] | 316 to 1000 |  | D (Category D: ≥6.5) |  |
| CCc1c(C#N)c(SCc2ccc(N3CCN(C)CC3)cc2)nc(N2CCCN(C)CC2)c1C#N [Example 384, 4-Ethyl-2-(4-methyl-1,4-diazepan-1-yl)-6-((4-(4-methylpiperazin-1-yl)benzyl)thio)pyridine-3,5-dicarbonitrile] | > 31600 | 316 to 1000 |  |  |
| CCc1c(C#N)c(SCc2ccc(CNC3CCNC3=O)cc2)nc(N2CCCN(C)CC2)c1C#N (stereo not drawn) [Example 385, 4-Ethyl-2-(4-methyl-1,4-diazepan-1-yl)-6-((4-(((2-oxopyrrolidin-3-yl)amino)methyl)benzyl)thio)pyridine-3,5-dicarbonitrile] | > 31600 | 316 to 1000 |  |  |
| CN(CCO)c1nc(SC(C(N)=O)c2ccccc2)c(C#N)c(C2CC2)c1C#N (stereo not drawn) [Example 386, 2-((3,5-Dicyano-4-cyclopropyl-6-((2-hydroxyethyl)(methyl)amino)pyridin-2-yl)thio)-2-phenylacetamide] | 1000 to 31600 | 316 to 1000 |  |  |
| N#Cc1c(SC(C(N)=O)c2ccccc2)nc(N2CC(O)C2)c(C#N)c1C1CC1 (stereo not drawn) [Example 387, 2-((3,5-Dicyano-4-cyclopropyl-6-(13-hydroxyazetidin-1-yl)pyridin-2-yl)thio)-2-phenylacetamide] | 1000 to 31600 |  | D (Category D: ≥6.5) |  |
| CCc1c(C#N)c(SC(C(N)=O)c2ccccc2)nc(N2CCC(C(N)=O)C2)c1C#N (stereo not drawn) [Example 388, 1-(6-((2-Amino-2-oxo-1-phenylethyl)thio)-3,5-dicyano-4-ethylpyridin-2-yl)pyrrolidine-3-carboxamide] | 1000 to 31600 | 316 to 1000 |  |  |
| CCc1c(C#N)c(SCc2ccc3[nH]cnc3c2)nc(N2CCCN(C)CC2)c1C#N [Example 390, 2-(((1H-Benzo[d]imidazol-5-yl)methyl)thio)-4-ethyl-6-(4-methyl-1,4-diazepan-1-yl)pyridine-3,5-dicarbonitrile] | 316 to 1000 | 316 to 1000 |  |  |
| CN(CCCN)c1nc(SC(C(N)=O)c2ccccc2)c(C#N)c(C2CC2)c1C#N (stereo not drawn) [Example 391, 2-((6-((3-Aminopropyl) (methyl)amino-3,5-dicyano-4-cyclopropylpyridin-2-yl)thio-2-phenylacetamide, Hydrochloride] | 1000 to 31600 |  | D (Category D: ≥6.5) |  |
| CN(CC(=O)N1CC(O)C1)c1nc(SC(C(N)=O)c2ccccc2)c(C#N)c(C2CC2)c1C#N (stereo not drawn) [Example 392, 2-((3,5-Dicyano-4-cyclopropyl-6-((2-(3-hydroxyazetidin-1-yl)-2-oxoethyl) (methyl)amino)pyridin-2-yl)thio)-2-phenylacetamide] | 316 to 1000 |  | D (Category D: ≥6.5) |  |
| CCc1c(C#N)c(SC(C(N)=O)c2ccccc2)nc(N2CC[C@H](OP(=O)(O)O)C2)c1C#N (stereo partly drawn) [Example 415, (3S)-1-(6-((2-amino-2-oxo-1-phenylethyl)thio-3,5-dicyano-4-ethylpyridin-2-yl) Pyrrolidin-3-yldihydrogen phosphate] |  | 1000 to 31600 |  | EC50 [1]: 1000 to 31600 nM |

Second part, led by results:

| EC50 ([1]; HbF ELISA, day 7 EPCs, 5 days) [nM] | IC50 (DNMT1; [2]) [nM] | DNMT1 BioChemical (pIC50 category) (DNMT1; [3]) | Compound | further results |
| --- | --- | --- | --- | --- |
| 316 to 1000 |  | D (Category D: ≥6.5) | CCc1c(C#N)c(SC(C(N)=O)c2ccccc2)nc(N2CCC(NCC(N)=O)CC2)c1C#N (stereo not drawn) [Example 393, 2-((6-(4-((2-Amino-2-oxoethyl)amino)piperidin-1-yl)-3,5-dicyano-4-ethylpyridin-2-yl)thio)-2-phenylacetamide] |  |
| 1000 to 31600 | 316 to 1000 |  | CN(CC(N)=O)c1nc(SC(C(N)=O)c2ccccc2)c(C#N)c(C2CC2)c1C#N (stereo not drawn) [Example 396, 2-((6-((2-Amino-2-oxoethyl)(methyl)amino)-3,5-dicyano-4-cyclopropylpyridin-2-yl)thio)-2-phenylacetamide] |  |
| 1000 to 31600 | 316 to 1000 |  | CN(CCOC(N)=O)c1nc(SC(C(N)=O)c2ccccc2)c(C#N)c(C2CC2)c1C#N (stereo not drawn) [Example 397, 2-((6-((2-Amino-2-oxo-1-phenylethyl)thio-3,5-dicyano-4-cyclopropylpyridin-2-yl)methyl)amino)ethyl carbamate] |  |
| 1000 to 31600 |  | D (Category D: ≥6.5) | CCc1c(C#N)c(SC(C(N)=O)c2ccccc2)nc(N2CCC(NC(=O)[C@H](N)CO)CC2)c1C#N (stereo partly drawn) [Example 398, (2R)-2-Amino-N-(1-(6-((2-amino-2-oxo-1-phenylethyl)thio)-3,5-dicyano-4-ethylpyridin-2-yl)piperidin-4-yl)-3-hydroxypropanamide] |  |
| 1000 to 31600 |  | D (Category D: ≥6.5) | CCc1c(C#N)c(SC(C(N)=O)c2ccccc2)nc(N2CCC(NC(=O)[C@@H](N)CO)CC2)c1C#N (stereo partly drawn) [Example 399] |  |
| 1000 to 31600 |  | D (Category D: ≥6.5) | CCc1c(C#N)c(SC(C(N)=O)c2ccc(CC(N)=O)cc2)nc(N2CCCN(C)CC2)c1C#N (stereo not drawn) [Example 400, 2-(4-(2-Amino-2-oxoethyl)phenyl)-2-(3,5-dicyano-4-ethyl-6-(4-methyl-1,4-diazepan-1-yl)pyridin-2-ylthio)acetamide] |  |
| 1000 to 31600 |  | D (Category D: ≥6.5) | CCc1c(C#N)c(SC(C(N)=O)c2ccc(CC(N)=O)cc2)nc(N(C)C)c1C#N (stereo not drawn) [Example 401, 2-(4-(2-Amino-2-oxoethyl)phenyl)-2-(3,5-dicyano-6-(dimethylamino)-4-ethylpyridin-2-ylthio)acetamide] |  |
| 1000 to 31600 |  | D (Category D: ≥6.5) | CCc1c(C#N)c(SC(C(N)=O)c2ccc(S(=O)(=O)NC)cc2)nc(N(C)C)c1C#N (stereo not drawn) [Example 402] |  |
| 316 to 1000 | 316 to 1000 |  | CCc1c(C#N)c(SCc2ccc(CS(C)(=O)=O)cc2)nc(N2CCCN(C)CC2)c1C#N [Example 403, 4-Ethyl-2-(4-methyl-1,4-diazepan-1-yl)-6-(4-(methylsulfonylmethyl)benzylthio)pyridine-3,5-dicarbonitrile] |  |
| < 316 |  | D (Category D: ≥6.5) | CCc1c(C#N)c(S[C@@H](C(N)=O)c2ccccc2)nc(N2CCC(N3CCCC3)CC2)c1C#N [Example 405, (R)-2-((3,5-Dicyano-4-ethyl-6-(4-(pyrrolidin-1-yl)piperidin-1-yl)pyridin-2-yl)thio)-2-phenylacetamide] |  |
| < 316 |  | D (Category D: ≥6.5) | CCc1c(C#N)c(S[C@@H](C(N)=O)c2ccccc2)nc(N2CCC(N(C)C)CC2)c1C#N [Example 406, (R)-2-((3,5-Dicyano-6-(4-(dimethylamino)piperidin-1-yl)-4-ethylpyridin-2-yl)thio)-2-phenylacetamide] |  |
| 1000 to 31600 |  | D (Category D: ≥6.5) | CCc1c(C#N)c(SC(C(N)=O)c2cccc(OCCN(C)C)c2)nc(N(C)C)c1C#N (stereo not drawn) [Example 407, 2-(3,5-dicyano-6-(dimethylamino)-4-ethylpyridin-2-ylthio)-2-(3-(2-(dimethylamino)ethoxy)phenyl)acetamide] |  |
| < 316 |  | D (Category D: ≥6.5) | CCc1c(C#N)c(SC(C(N)=O)c2ccc(F)cc2)nc(N2CCC(NCC(C)(C)C)CC2)c1C#N (stereo not drawn) [Example 408, 2-((3,5-Dicyano-4-ethyl-6-(4-(neopentylamino)piperidin-1-yl)pyridin-2-yl)thio)-2-(4-fluorophenyl)acetamide] |  |
| < 316 |  | D (Category D: ≥6.5) | CCc1c(C#N)c(SC(C(N)=O)c2ccccc2)nc(N2CCC(NCC(C)(C)C)C(F)C2)c1C#N (stereo not drawn) [Example 409, 2-((3,5-dicyano-4-ethyl-6-(3-fluoro-4-A(neopentylamino)piperidin-1-yl)pyridin-2-yl)thio)-2-phenylacetamide] | average pIC50 against DNMT1 (DNMT1; breaklight assay and/or SPA assay, repeated experimental runs): > 6.5; IC50 (DNMT1; breaklight assay and/or SPA assay, repeated experimental runs, read-out: average pIC50 against DNMT1 (converted)): 158 nM |
| 316 to 1000 |  | D (Category D: ≥6.5) | CCc1c(C#N)c(SC(C(N)=O)c2ccc(C(F)(F)F)cc2)nc(N2CCC(N)CC2)c1C#N (stereo not drawn) [Example 410, 2-((6-(4-aminopiperidin-1-yl)-3,5-dicyano-4-ethylpyridin-2-yl)thio)-2-(4-(trifluoromethyl)phenyl)acetamide] |  |
| < 316 |  | D (Category D: ≥6.5) | CCc1c(C#N)c(SC(C(N)=O)c2ccccc2)nc(N2CCC(N3CCCC3)CC2)c1C#N (stereo not drawn) [Example 411, 2-((3,5-Dicyano-4-ethyl-6-(4-(pyrrolidin-1-yl)piperidin-1-yl)pyridin-2-yl)thio)-2-phenylacetamide] |  |
| 1000 to 31600 | 316 to 1000 |  | CC(=O)NCc1ccc(CSc2nc(N3CCCN(C)CC3)c(C#N)c(-c3ccco3)c2C#N)cc1 [Example 414] |  |
